Where a name gives a salt, the structure may show the parent alone. Read-outs that look alike come from different tables or passages of the source.
Tested on: Hydractinia echinata
Test: Hydractinia echinata test system (HeTS): reduction of Cs+-induced metamorphosis of larvae
Assay type: in vivo
Conditions: for EC50: Hydractinia echinata
Description: The average (C) concentrations of these values were calculated too. The MRC50 value calculations (Chicu et al.) result from the graphical representation of the metamorphosis variation, M (%), (Y axis) function of the xenobiotic’s concentration (mol/L) (X axis), where the metamorphosis decreases with the rise of the xenobiotic’s concentration. Thus, the MRC50 value represents the xenobiotic’s concentration (mol/L) necessary for a 50% decrease of metamorphosis, with respect to control.
For each concentration of substance experiments were performed in triplicate and were repeated at least twice.
Colonies of H. echinata (Biologische Anstalt, Helgoland, Germany) were used to obtain eggs and larvae. The culture medium was artificial seawater (980 mosmol, pH 8.2, 18 °C). In laboratory an artificial metamorphosis can be synchronically started by the introduction of Cs^+ ions or by using seawater without Mg^2+ ions; it then lasts only 24 h. Under the action of external stimulus of Cs^+ ions or Cs^+ ions together with the tested compounds, one part of larvae further lives as such and another one is metamorphosized to the polyp form. The evaluation of the influence of the tested substance is very clear this way, the proposed method being based on this aspect.
H. echinata larvae were exposed to seawater containing Cs^+ and simultaneously one of the test substances for 3 h. The percentage of animals that underwent metamorphosis (development into polyps) was determined after 24 h. […] We chose a concentration of inducers which caused about […] to three quarters of the larvae to metamorphose in order to have conditions which are highly sensitive against an inhibitory influence. […] This concentration was termed MRC50 (for Metamorphosis Reduction Concentration) and is similar to the effective EC50 concentration that gives half maximal effective response.

[1] = MRC50 in mol/L = concentration for 50% decrease of metamorphosis vs control, larvae exposed 3 h with Cs+, read after 24 h
[2] = MRC50 in mol/L = concentration for 50% decrease of metamorphosis vs control, larvae exposed 3 h with Cs+, read after 24 h, read-out: M: experimental Mlog(1/MRC50) (converted)
[3] = parent dye, Table 2, read-out: F(1+2+...)e experimental toxicity log(1/MRC50) (converted)

Molecule: O=S(=O)([O-])c1cc(O)c2c(O)c(N=Nc3ccccc3)c(S(=O)(=O)[O-])cc2c1.[Na+].[Na+] [Compound 41, Acid Red 29 (Chromotrope 2R)]
- M: experimental Mlog(1/MRC50) [1]: 3.65

Molecule: O=C(O)c1ccc(N=Nc2ccccc2)cc1 [Compound 2, 4-(2-Phenyldiazen-1-yl)benzoic acid]
- EC50 [2]: 214 µM
- EC50 [3]: 214 µM

Molecule: O=C(O)c1ccc(N=Nc2ccc(O)cc2)cc1 [Compound 7, 4-[2-(4-Hydroxyphenyl)diazen-1-yl]benzoic acid]
- EC50 [2]: 479 µM
- EC50 [3]: 479 µM

Molecule: O=C(Nc1ccc(N=Nc2c(O)ccc3ccccc23)cc1)c1ccc(N=Nc2ccc(O)c(C(=O)Nc3ccccc3)c2)cc1 [Compound 128, 2-Hydroxy-5-{2-[4-({4-[2-(2-hydroxynaphthalen-1-yl)diazen-1-yl]-phenyl}carbamoyl)-phenyl]diazen-1-yl}-N-phenylbenzamide]
- EC50 [2]: 53.7 µM

Molecule: COc1cc(NC(=O)c2ccccc2)c(OC)cc1[N+]#N [Compound 135, Fast Blue RR Salt]
- M: experimental Mlog(1/MRC50) [1]: 4.09

Molecule: Direct Black 32 [Compound 77]
- M: experimental Mlog(1/MRC50) [1]: 3.89

Molecule: Bordo Direct AN [Compound 81]
- M: experimental Mlog(1/MRC50) [1]: 3.86

Molecule: CCN(CC)c1ccc(N=Nc2ccc(C(=O)O)cc2)cc1 [Compound 6, 4-{2-[4-(Diethylamino)phenyl]diazen-1-yl}benzoic acid]
- EC50 [2]: 17 µM

Molecule: O=C(Nc1ccc(/N=N/c2ccc(C(=O)O)c(O)c2)cc1)c1ccc(/N=N/c2ccccc2O)cc1 [Compound 104, 2-Hydroxy-4-[(E)-2-(4-{4-[(E)-2-(2-hydroxy-phenyl)diazen-1-yl]-benzamido}phenyl)-diazen-1-yl]benzoic acid]
- EC50 [2]: 30.2 µM
- EC50 [3]: 30.2 µM

Molecule: COc1cc(-c2ccc([N+]#N)c(OC)c2)ccc1[N+]#N [Compound 94, Fast Blue B]
- M: experimental Mlog(1/MRC50) [1]: 4.30

Molecule: O=C(Nc1ccc(N=Nc2ccc(O)c(C(=O)Nc3ccccc3)c2)cc1)c1ccc(N=Nc2ccc(O)c(C(=O)Nc3ccccc3)c2)cc1 [Compound 117, 2-Hydroxy-5-{2-[4-(4-{2-[4-hydroxy-3-(phenylcarbamoyl)phenyl]diazen-1-yl}-benzamido)phenyl]-diazen-1-yl}-N-phenylbenzamide]
- EC50 [2]: 166 µM
- EC50 [3]: 166 µM

Molecule: O=S(=O)([O-])c1ccc2c(N=Nc3ccc(S(=O)(=O)[O-])c4ccccc34)c(O)c(S(=O)(=O)[O-])cc2c1.[Na+].[Na+].[Na+] [Compound 57, Acid Red 27 (Amaranth, Food Red 9)]
- M: experimental Mlog(1/MRC50) [1]: 2.33

Molecule: Nc1ccc(N=Nc2ccc(NC(=O)c3ccc(N=Nc4c(S(=O)(=O)O)cc5cc(S(=O)(=O)O)c(N=Nc6ccccc6)c(O)c5c4N)cc3)cc2)c(N)c1 [Compound 116, 4-Amino-3-{2-[4-({4-[2-(2,4-diamino-phenyl)diazen-1-yl]phenyl}carbamoyl)-phenyl]diazen-1-yl}-5-hydroxy-6-(2-phenyl-diazen-1-yl)-naphthalene-2,7-disulfonic acid]
- EC50 [2]: 166 µM

Molecule: O=C(O)c1cc(N=Nc2ccc(C=Cc3ccc(N=Nc4ccc(O)cc4C(=O)O)cc3S(=O)(=O)O)c(S(=O)(=O)O)c2)ccc1O [Compound 98, 2-{2-[4-(2-{4-[2-(3-Carboxy-4-hydroxy-phenyl)diazen-1-yl]-2-sulfophenyl}ethenyl)-3-sulfophenyl]diazen-1-yl}-5-hydroxybenzoic acid]
- EC50 [2]: 407 µM

Molecule: O=S(=O)([O-])c1cc(Nc2nc(Nc3ccccc3)nc(N(CCO)CCO)n2)ccc1/C=C/c1ccc(Nc2nc(Nc3ccccc3)nc(N(CCO)CCO)n2)cc1S(=O)(=O)[O-].[Na+].[Na+] [Compound 103, Fluorescent Brightener 28]
- M: experimental Mlog(1/MRC50) [1]: 3.81

Molecule: O=S(=O)([O-])c1cc(N=Nc2c(O)ccc3ccccc23)ccc1-c1ccc(N=Nc2c(O)ccc3ccccc23)cc1S(=O)(=O)[O-].[Na+].[Na+] [Compound 87, Acid Red 97]
- M: experimental Mlog(1/MRC50) [1]: 4.11

Molecule: Cc1cc(-c2ccc(/N=N/c3ccc4c(S(=O)(=O)O)cc(S(=O)(=O)O)c(N)c4c3O)c(C)c2)ccc1/N=N/c1ccc2c(S(=O)(=O)O)cc(S(=O)(=O)O)c(N)c2c1O [Compound 89, Direct Blue 53 (Evans Blue)]
- EC50 [2]: 7.41 µM

Molecule: Nc1ccc2cc(S(=O)(=O)O)c(N=Nc3ccc(NC(=O)c4ccc(N=Nc5c(S(=O)(=O)O)cc6cc(S(=O)(=O)O)cc(N)c6c5O)cc4)cc3)c(O)c2c1 [Compound 111, 5-Amino-3-{2-[4-({4-[2-(7-amino-1-hydroxy-3-sulfonaphthalen-2-yl)diazen-1-yl]phenyl}-carbamoyl)phenyl]diazen-1-yl}-4-hydroxy-naphthalene-2,7-disulfonic acid]
- EC50 [2]: 263 µM

Molecule: Cc1cccc(N=Nc2ccc(N=Nc3c(O)ccc4ccccc34)cc2C)c1 [Compound 64, Solvent Red 25 (Sudan Red B)]
- M: experimental Mlog(1/MRC50) [1]: 3.42

Molecule: O=S(=O)(O)c1cc(S(=O)(=O)O)c2c(/N=N/c3ccccc3)c(O)ccc2c1 [Compound 39, Acid Orange 10 (Orange G)]
- EC50 [2]: 457 µM

Molecule: O=C(Nc1ccc(/N=N/c2ccc(O)c(C(=O)O)c2)cc1)c1ccc(/N=N/c2cc(/N=N/c3cc(S(=O)(=O)O)ccc3O)c(O)cc2O)cc1 [Compound 105, 5-[(E)-2-(4-{4-[(E)-2-{2,4-dihydroxy-5-[(E)-2-(2-hydroxy-5-sulfo-phenyl)diazen-1-yl]-phenyl}diazen-1-yl]-benzamido}phenyl)-diazen-1-yl]-2-hydroxybenzoic acid]
- EC50 [2]: 229 µM

Molecule: Nc1ccc(C(=O)O)cc1 [APAB, p-aminobenzoic acid]
- EC50 (product of enzymatic reduction/hydrolysis of the dye, read-out: F(1), F(2),... individual log(1/MRC50) toxicity value (converted)): 457 µM

Molecule: CC(=O)Nc1cc(S(=O)(=O)[O-])cc2cc(S(=O)(=O)[O-])c(N=Nc3ccccc3C)c(O)c12.[Na+].[Na+] [Compound 43, Acid Red 35]
- M: experimental Mlog(1/MRC50) [1]: 3.63

Molecule: Cc1ccc(N=Nc2c(O)c(S(=O)(=O)[O-])cc3cc(S(=O)(=O)[O-])ccc23)c(C)c1.[Na+].[Na+] [Compound 38, Acid Red 26 (Ponceau Xilidine)]
- M: experimental Mlog(1/MRC50) [1]: 4.06

Molecule: 2-Aminocresol
- F(1), F(2),... individual log(1/MRC50) toxicity value (product of enzymatic reduction/hydrolysis of the dye): 3.21

Molecule: CN(C)c1ccc(N=Nc2ccccc2C(=O)[O-])cc1.[Na+] [Compound 4, Methyl Red (sodium salt)]
- M: experimental Mlog(1/MRC50) [1]: 3.79

Molecule: O=[N+]([O-])c1ccc2c(N=Nc3ccc4ccccc4c3O)c(O)cc(S(=O)(=O)[O-])c2c1.[Na+] [Compound 58, Eriochrom Black T]
- M: experimental Mlog(1/MRC50) [1]: 4.13

Molecule: Nc1ccc([N+](=O)[O-])cc1 [p-NA, p-nitroaniline]
- F(1), F(2),... individual log(1/MRC50) toxicity value (in vivo): 2.85

Molecule: Nc1c(N=Nc2ccc(C=Cc3ccc(N=Nc4cc(S(=O)(=O)O)c5ccccc5c4N)cc3S(=O)(=O)O)c(S(=O)(=O)O)c2)cc(S(=O)(=O)O)c2ccccc12 [Compound 102, 4-Amino-3-{2-[4-(2-{4-[2-(1-amino-4-sulfonaphthalen-2-yl)diazen-1-yl]-2-sulfophenyl}ethenyl)-3-sulfophenyl]diazen-1-yl}naphthalene-1-sulfonic acid]
- EC50 [2]: 182 µM

Molecule: Nc1c(N=Nc2ccc([N+](=O)[O-])cc2C(=O)O)c(S(=O)(=O)O)cc2cc(S(=O)(=O)O)c(N=Nc3ccc(NC(=O)c4ccc(N=Nc5ccc(O)c(C(=O)O)c5)cc4)cc3)c(O)c12 [Compound 114, 5-[2-(4-{[4-(2-{8-Amino-7-[2-(2-carboxy-4-nitrophenyl)diazen-1-yl]-1-hydroxy-3,6-disulfonaphthalen-2-yl}diazen-1-yl)phenyl]-carbamoyl}phenyl)-diazen-1-yl]-2-hydroxybenzoic acid]
- EC50 [2]: 129 µM

Molecule: Nc1ccc2cc(S(=O)(=O)O)c(N=Nc3ccc(NC(=O)c4ccc(N=Nc5ccc(O)c(C(=O)O)c5)cc4)cc3)c(O)c2c1 [Compound 108, 5-{2-[4-({4-[2-(7-Amino-1-hydroxy-3-sulfonaphthalen-2-yl)diazen-1-yl]-phenyl}carbamoyl)-phenyl]diazen-1-yl}-2-hydroxybenzoic acid]
- EC50 [2]: 214 µM

Molecule: O=C(O)c1ccc(N=Nc2c(O)ccc3ccccc23)cc1 [Compound 23, 4-[2-(2-Hydroxynaphthalen-1-yl)diazen-1-yl]benzoic acid]
- EC50 [2]: 245 µM

Molecule: O=C(O)c1cc2ccccc2c(N=Nc2ccc(C=Cc3ccc(N=Nc4c(O)c(C(=O)O)cc5ccccc45)cc3S(=O)(=O)O)c(S(=O)(=O)O)c2)c1O [Compound 101, 4-{2-[4-(2-{4-[2-(3-Carboxy-2-hydroxy-naphthalen-1-yl)diazen-1-yl]-2-sulfophenyl}-ethenyl)-3-sulfo-phenyl]diazen-1-yl}-3-hydroxynaphthalene-2-carboxylic acid]
- EC50 [2]: 135 µM

Molecule: Nc1c(N=Nc2ccc(NC(=O)c3ccc(N=Nc4ccc(O)c(C(=O)Nc5ccccc5)c4)cc3)cc2)cc(S(=O)(=O)O)c2ccccc12 [Compound 120, 4-Amino-3-{2-[4-(4-{2-[4-hydroxy-3-(phenyl-carbamoyl)phenyl]diazen-1-yl}benzamido)phenyl]-diazen-1-yl}naphthalene-1-sulfonic acid]
- EC50 [2]: 25.1 µM
